{"source": "patent US6919378B2", "about": "“Pharmaceutical solutions of modafinil compounds” (Cephalon, Inc., priority 2000, dated 2005)", "key": {"monkeys": {"test_system": "monkeys", "details": "single administration; cited from earlier work"}, "[1]": {"assay": "Solubility of modafinil in solvent composition, measured by HPLC", "format": "physicochemical", "details": "PEG-400:benzyl alcohol 95:5 (v/v) solvent mixture, organic solvent or mixture, thermodynamic from solid, in 95:5 (v/v) PEG-400:benzyl alcohol, cooled to room temperature, filtered", "experimental": "The following HPLC method may be used to measure the modafinil compound content in the compositions. Filter a solution saturated with a modafinil compound through a 1.2 μm syringe filter. Dilute 10 μL of the clear solution to 1 mL with 990 μL of dimethylsulfoxide (Fischer Certified ACS grade). Take 10 μL of the diluted solution for the HPLC analysis, with the following representative column conditions: • Flow rate: 1.2 mL/min. • Column: ODS, 4.6×20 mm, Column Temp: 30° C. • Mobil phase: 80% (65% Acetonitrile/35% 1M phosphate buffer) • 20% water • Analysis time: 5 minutes • Wavelength: 222 nanometers\nConcentration can be calculated by comparison to area from a modafinil compound standard used at 0.4 mg/mL with appropriate dilution.\nA mixture of 95 mL of PEG-400 and 5 ml of benzyl alcohol was stirred at room temperature until homogeneous. To a separate container, 0.1 gram of modafinil was weighed and 1 mL of the mixed solvent was added with stirring and heating to 55-60° C. The solution was allowed to cool to room temperature and any undissolved solid was removed by filtering the solution. In the case of a viscous solution or a solution that solidifies at room temperature, warming until a freely flowing solution was obtained and then filtration gave a solution free of particulate matter."}, "mice": {"test_system": "mice", "details": "single administration; cited from earlier work"}, "[2]": {"assay": "Water and lipid solubility (observation)"}}}
{"smiles": "NC(=O)C[S+]([O-])C(c1ccccc1)c1ccccc1", "note": "(centres unmarked) [modafinil, 2-(benzhydryl-sulfinyl)acetamide]", "values": [{"measurement": "nocturnal activity", "setting": "monkeys", "value": "increased nocturnal activity"}, {"measurement": "solubility", "setting": "[1]", "value": 61, "unit": "mg/mL"}, {"measurement": "locomotor activity", "setting": "mice", "value": "increased locomotor activity"}, {"measurement": "lipid solubility", "setting": "[2]", "value": "very poor"}, {"measurement": "water solubility", "setting": "[2]", "value": "very poor"}]}
